# Data from patent publication US10155047B2, “Polymers having therapeutically active agents conjugated thereto, processes of preparing same and uses thereof” (Ramot at Tel-Aviv University Ltd., priority 2012, dated 2018).
# Ends that are not written are not given here. PGA = not defined here
# What was measured:
# Saos-2 cells = experiment: NTP binding to Saos2 cells (confocal microscopy); format: cell-based, human; settings: fluorescently labeled peptides
# Method: Cell specificity and uptake of the fluorescently labeled peptides was monitored utilizing a Zeiss Meta LSM 510 confocal imaging system. Cells were plated on glass slides and incubated overnight. The following day cells were incubated with 100 μM of CF-NTP or CF-scrambled peptide for 30 minutes at 37° C., washed several times with PBS, fixated with 4% paraformaldehyde, stained with Hoechst stain and mounted on slides. In order to examine intracellular trafficking of the peptide, cells were incubated with the peptides in serum free medium, washed several times with cold PBS and incubated with […] AlexaFluor 594 human transferrin for 1 h at 37° C. Cells were washed several times with PBS, fixated with 4% PFA, stained with Hoechst stain and mounted on slides.
# Binding of NTP (SEQ ID NO:1) to Saos-2 cells, compared to binding of sNTP (SEQ ID NO:2), was examined by confocal microscopy. FITC-labeled targeting peptides were used. […] In experiments with transferrin, peptide was seen as intracellular aggregates or vesicles, though not colocalized with transferrin.
# [1] = test system: NCAM-expressing Mel-526 human melanoma cells; experiment: Binding to NCAM-expressing Mel-526 cells; format: cell-based
# ES2 cells = experiment: Binding to ES2 cells (FACS); format: cell-based, human
# Method: Cells were washed with PBS, harvested using a cell scraper and labeled by incubation with APC-conjugated CD-56 antibody (Biolegend) for 45 min at 4° C. in the dark. Cells were washed three times with PBS and filtrated with 100 μm cell strainer (BD Falcon).
# Binding of C3 (SEQ ID NO:3) to ES2 cells, and competition of binding of the NCAM-specific antibody APC-conjugated anti-human CD56 (NCAM) (BioLegend) and bFGF was examined by FACS.
# PGA and PGA-C3 were labeled with FITC on the N-terminal of the PGA chain. Binding to ES-2 cells was examined by FACS.
# SK N MC cells = experiment: SK N MC cell proliferation assay after sorting to NCAM+/-; format: cell-based
# Method: (§1) In an exemplary procedure, cells were plated onto 96-well plates in appropriate complete medium for each cell line as described above, and incubated for 24 hours (37° C.; 5% CO2). On the following day cells were treated with e.g., paclitaxel at various concentrations (e.g., 0.0001, 0.001, 0.01, 0.1, 1, 10, 100, 1000, 10,000 nM) or, e.g., doxorubicin at various concentrations (e.g., 0.001, 0.001, 0.01, 0.1, 1, 10, 100, 1000, 10,000, 100,000 nM) for 72 hours. After incubation cell viability was determined by MTT assay.
# Cells were harvested and labeled as described above, and resuspended in the appropriate cell culture medium (according to cell type) with 5% FBS. Cells were filtrated with 100 μm cell strainer before sorting. Sorted cells were collected into tubes containing complete medium with 0.5 mg/ml gentamycin (Biological Industries, Israel). All work was done in sterile conditions.
# (§2) The effect of DOX and PTX treatments on proliferation of ES2 and SK N MC cells after sorting to NCAM+/− and/or on unsorted cells was examined, to test whether NCAM+ cells are more resistant to chemotherapeutic drugs.
# MDA-MB-231 cells [2] = experiment: Internalization and intracellular release of DOX, confocal microscopy; format: cell-based, human; settings: 400 nM DOX-equivalent
# Method: Internalization and intracellular release of DOX from the conjugates was evaluated by confocal microscopy (Leica SP5). MDA-MB-231 cells were incubated with free DOX and DOX-containing conjugates (PGA-DOX, PGA-PTX-DOX) at 400 nM equivalent concentrations for 20 minutes, 2, 6 or 24 hours. Following incubation, cells were washed, fixed with 4% PFA and mounted on glass slides using Prolong® Gold antifade reagent with DAPI (4′-6-Diamidino-2-phenylindole) (Invitrogen) for nucleus. DOX was excited at 488 nm and its emission was recorded at 550-700 nm.
# [3] = test system: ES-2 ovarian carcinoma cells; experiment: ES-2 cell proliferation assay (72 hours); format: cell-based, human
# Method: ES-2 human ovarian carcinoma cells were purchased from the ATCC.
# (§3) After incubation cell viability was determined by MTT assay.
# (§4) In an exemplary procedure, selected inhibition concentration values (e.g., IC40, IC60 and IC80) of PTX, DOX and combinations thereof from a respective cell proliferation assay were collected. The selected inhibition concentration values of DOX and PTX were marked on X and Y axes respectively and a line which represents additive effect was drawn between each inhibitory concentration (IC). The combination index (CI) of each treatment was calculated according to the classic isobologram equation CI=[(D)1/(Dx)1]+[(D)2/(Dx)2].
# The effect of DOX and PTX combinations on viability of ES2 and Saos2 cells was examined. Cells were treated with PTX alone, DOX alone, varying concentrations of DOX with a set concentration of PTX (10 or 50 nM for ES2, 1 nM for Saos2) or varying concentrations of PTX with a set concentration of DOX (10 or 50 nM). IC20, IC40 and IC60 values (growth inhibition by 20, 40 and 60% respectively) were derived from the growth charts and combination index (CI) values were calculated.
# The activity of PGA-PTX-DOX conjugate (Route 1, see, FIG. 18) and of PGA-PTX-DOX conjugate (Route 2, see, FIG. 19D) was examined in vitro on proliferation of ES-2 ovarian carcinoma cells.
# as §2
# MDA-MB-231 cells [4] = experiment: MDA-MB-231 cell proliferation assay (72 hours); format: cell-based, human; settings: for IC20 / IC 40 / IC 60: MDA-MB-231, single drug
# Method: Human MDA-MB-231 cells were purchased from American Tissue Culture Collection (ATCC), and were cultured in DMEM supplemented with 10% FBS, 100 μg/ml penicillin, 100 U/ml streptomycin, 12.5 U/ml nystatin. All Cells were grown at 37° C., 5% CO2.
# as §1
# (§5) For evaluating anti-proliferative activity of a combination of PTX and DOX, cells were treated with varying concentrations of DOX with a set concentration of PTX or varying concentrations of PTX with a set concentration of DOX.
# Selected inhibition concentration values (e.g., IC50, IC40, IC60 and IC80 values (growth inhibition by 50, 40, 60 and 80% respectively) were derived from the obtained growth charts.
# as §4
# The effect of PTX, DOX and combinations thereof on the proliferation of human MDA-MB-231 cells was tested.
# FIG. 6A presents the results obtained for PTX and DOX, each alone, at various concentrations within a range of 0.01-10000 nM, and for various concentrations of PTX with 20 nM DOX, and for various concentrations of DOX with 1 nM PTX. […] Data represents mean±SD.
# In order to evaluate the combination treatment effect, data from combination treatment results were collected, analyzed and calculated according to CI equations. Combination treatments I (PTX+DOX 20 nM) and II (DOX+PTX 1 nM) inhibited MDA-MB-231 cells proliferation of IC 20, 40, 60 at 0.8, 4, 25 and 4, 150, 700 nM respectively.
# The activity of a PGA-PTX-DOX conjugate (Route 2, see, FIG. 19D) was examined in vitro on proliferation of MDA-MB-231 human breast cancer cells. Cells were incubated with the conjugates PGA-PTX-DOX, PGA-PTX, PGA-DOX and combination of PGA-PTX and PGA-DOX (in the same ratio as on the PGA-PTX-DOX conjugate), the free drugs PTX, DOX and their combination (in the same ratio as on the PGA-PTX-DOX conjugate) and with PGA for 72 hours.
# HUVECs = experiment: HUVEC proliferation assay (MTT, 72 hours); format: cell-based, human
# Method: Human umbilical vein endothelial cells (HUVECs) were isolated from umbilical cords and were cultured in EGM-2 media.
# as §3, §5
# Same procedure was followed for other drugs and combination treatments.
# as §4
# The effect of PTX at various concentrations (0.0001, 0.001, 0.01, 0.1, 1, 10, 100, 1000, and 10,000 nM), and of doxorubicin at various concentrations (0.001, 0.001, 0.01, 0.1, 1, 10, 100, 1000, 10,000, 100,000 nM) on the proliferation of HUVEC p3 cells was tested. The obtained data is presented in FIG. 1A for PTX and in FIG. 1B for DOX.
# For evaluating the effect of the combination treatment, 0.1 or 1 nM DOX with various concentrations of PTX and 0.1 or 1 nM PTX with various concentrations of DOX were tested.
# The effect of PTX at various concentrations, TNP-470 at various concentrations and of various combinations of a set concentration of PTX and variable concentrations of TNP-470 and a set concentration of TNP-470 and variable concentrations of PTX, on proliferation of HUVECs, was tested. Similar assays were performed in the presence of 10,000 nM alendronate. The obtained data is presented in FIG. 7A (no alendronate) and in FIG. 7B (in the presence of alendronate).
# The effect of the PGA-PTX-DOX conjugate (Route 1, see, FIG. 18) on HUVECs proliferation was tested and compared to the free drugs, each alone and in combination.
compound,measurement,setting,value
GESDDEND [scrambled peptide],binding to cells,Saos-2 cells,does not
"GASKKPAANIKA [C3ala, control peptide]",binding,[1],20%
CF-labeled C3: C3 (SEQ ID NO:3) labeled at the N-terminal with 5(6)-carboxyfluorescein ({5(6)‑carboxyfluorescein}-GASKKPKRNIKA),binding to cells,"ES2 cells; ES2, CF-labeled peptide alone",bound at levels much higher than NCAM expression
same,binding when incubated with NCAM antibody or bFGF,"ES2 cells; ES2, competition",its binding decreased
"COc1cccc2c1C(=O)c1c(O)c3c(c(O)c1C2=O)C[C@@](O)(C(=O)CO)C[C@@H]3O[C@H]1C[C@H](N)[C@H](O)[C@H](C)O1 [DOX, doxorubicin]",IC50,SK N MC cells; SK N MC cells sorted NCAM+,90 nM
same,IC50,SK N MC cells; SK N MC cells sorted NCAM−,40 nM
same,IC50,SK N MC cells; SK N MC cells unsorted,50 nM
same,cell internalization,MDA-MB-231 cells [2],rapidly internalized in the cells
same,incubation time after which DOX is accumulated in the nucleus,MDA-MB-231 cells [2],6 h
same,IC50,[3]; ES2 cells sorted NCAM+,300 nM
same,IC50,[3]; ES2 cells sorted NCAM−,150 nM
same,IC50,[3]; ES2 cells unsorted,250 nM
same,IC50,"[3]; ES-2, 72 hours, conjugates of Route 2 (FIG. 19D), three separate experiments",25 nM
same,IC20,MDA-MB-231 cells [4],60 nM
same,IC 40,MDA-MB-231 cells [4],250 nM
same,IC 60,MDA-MB-231 cells [4],950 nM
same,IC50,"HUVECs; HUVEC p3, PGA-PTX-DOX is the Route 1 conjugate (FIG. 18)",7 nM
same,IC50,"HUVECs; HUVEC proliferation, drug alone or varied with a set concentration of the other drug",40 nM
"GASKKPKRNIKA [C3, NCAM targeting peptide C3 with added N-terminal glycine]",binding,[1],50%
"CC(=O)O[C@H]1C(=O)[C@@]2(C)[C@H]([C@H](OC(=O)c3ccccc3)[C@]3(O)C[C@H](OC(=O)[C@H](O)[C@@H](NC(=O)c4ccccc4)c4ccccc4)C(C)=C1C3(C)C)[C@]1(OC(C)=O)CO[C@@H]1C[C@@H]2O [PTX, Paclitaxel]",IC50,"SK N MC cells; Homo sapiens, SK N MC cells unsorted",45 nM
same,IC50,"[3]; Homo sapiens, ES-2, ES2 cells sorted NCAM+",70 nM
same,IC50,"[3]; Homo sapiens, ES-2, ES2 cells sorted NCAM−",90 nM
same,IC50,"[3]; Homo sapiens, ES-2, ES2 cells unsorted",70 nM
same,IC50,"[3]; Homo sapiens, Ovarian carcinoma cell, 72 h, ES-2, 72 hours, conjugates of Route 2 (FIG. 19D), three separate experiments",6 nM
same,IC50,"MDA-MB-231 cells [4]; Homo sapiens, MDA-MB-231, 72 hours, PTX- and DOX-equivalent concentrations, Route 2 conjugate (FIG. 19D)",2 nM
same,IC20,MDA-MB-231 cells [4]; Homo sapiens,2.5 nM
same,IC 40,MDA-MB-231 cells [4],7 nM
same,IC 60,MDA-MB-231 cells [4],100 nM
same,IC50,"HUVECs; Homo sapiens, HUVEC, HUVEC p3, PGA-PTX-DOX is the Route 1 conjugate (FIG. 18)",1 nM
same,IC50,"HUVECs; Homo sapiens, HUVEC, HUVEC proliferation, drug alone or varied with a set concentration of the other drug",7 nM
PGA-C3: PGA conjugated to C3 peptide (SEQ ID NO:3) through the N-terminal amine ({PGA}-GASKKPKRNIKA; reading uncertain),binding to cells,"ES2 cells; ES-2, FITC-labeled polymers",bound more strongly than non-targeted PGA and similarly to free C3 peptide
"GDDSDEEN [NTP, NCAM-targeting peptide]",binding to cells,Saos-2 cells,binds to the cells
